From ChEMBL document CHEMBL1151604, “Enantiomerically pure synthesis and antiviral evaluation of [(2S, 3S)-bis(hydroxymethyl)azetidin-1-yl] purine nucleosides: Analogs of oxetanocin-A” (Bioorg Med Chem Lett, 1995)
In brackets after ≈: the same amount, converted by molar mass.

Key:
Assay type in all cases: functional, cell-based
[1] = tested on: Vero; experiment: In vitro evaluation of antiviral activity against HSV-2 (Herpes simplex virus-2) induced cytopathic effect in vero cells by a plaque reduction assay; conditions: Chlorocebus sabaeus
[2] = tested on: Vero; experiment: In vitro evaluation of antiviral activity against HSV-1 (Herpes simplex virus-1) induced cytopathic effect in vero cells by a plaque reduction assay; conditions: Chlorocebus sabaeus
[3] = tested on: Vero; experiment: Compound was evaluated for cytotoxicity against vero cells up to a concentration of 100 ug/mL; non toxic; conditions: Chlorocebus sabaeus
[4] = tested on: MT4; experiment: In vitro evaluation of antiviral activity against HSV-1 (Herpes simplex virus-1) induced cytopathic effect in MT-4 cells by indirect immunofluorescence assay; conditions: Homo sapiens

Structure (SMILES)	EC50 [1]	EC50 [2]	Activity [3]	EC50 [4]
Nc1nc2c(ncn2COCCO)c(=O)[nH]1 [ACYCLOVIR]	0.39 µg/mL (≈ 1.73 µM)	0.32 µg/mL (≈ 1.42 µM)	–	–
Nc1ncnc2c1ncn2N1CC(CO)C1CO (configuration not stated)	34.9 µg/mL (≈ 139 µM)	33.2 µg/mL (≈ 133 µM)	Not toxic	0.37 µg/mL (≈ 1.48 µM)
Nc1nc(O)c2ncn(N3CC(CO)C3CO)c2n1 (configuration not stated)	6.32 µg/mL (≈ 23.7 µM)	5.36 µg/mL (≈ 20.1 µM)	Not toxic	0.46 µg/mL (≈ 1.73 µM)
O=c1[nH]cnc2c1ncn2[C@H]1CC[C@@H](CO)O1 [DIDANOSINE]	–	–	–	0.46 µg/mL (≈ 1.95 µM)
Cc1cn([C@H]2C[C@H](N=[N+]=[N-])[C@@H](CO)O2)c(=O)[nH]c1=O [ZIDOVUDINE]	–	–	–	0.0032 µg/mL (≈ 0.012 µM)
